Entries after “also recorded” stand apart in the source; their conditions may differ.
T1: Human Skin Chymase (Homo sapiens, UniProt P23946)
T1 construct: purchased Cortex Biochem CP1129; host or cells: human skin
T1 sequence (P23946 22-247): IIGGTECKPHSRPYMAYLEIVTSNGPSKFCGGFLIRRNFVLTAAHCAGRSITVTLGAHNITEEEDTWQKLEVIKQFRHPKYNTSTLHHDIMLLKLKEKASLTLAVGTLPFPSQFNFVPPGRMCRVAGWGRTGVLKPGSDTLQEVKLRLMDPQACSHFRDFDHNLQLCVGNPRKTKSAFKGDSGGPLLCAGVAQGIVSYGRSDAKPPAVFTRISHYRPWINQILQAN


Columns and labels:
in vivo = test: in vivo; set-up: species or system male rats (Long Evans); settings: rat, iv
Procedure: Since the compounds of the formula (l) are also potent thrombin inhibitors (see U.S. Pat. No. 5,523,308), an ex vivo thrombin assay was conducted to determine the duration of action of the compounds of Formula I. For this i.v. assay male rats (Long Evans, 350-500 g) were implanted with a teflon cannulae via the femoral artery while under anesthesia (pentobarbital i.p., 35 mg/kg). After surgery, the animals were individually housed in standard cages, fed with rat chow (Hanlan, #8604) and continuously infused with physiological saline to maintain arterial patency, (0.5 mL/h, intra arterial) using a spring-shielded swiveling tether connected to an infusion system. The animals were allowed to recover for at least 24 h after the surgical procedure.
A sample of blood was drawn from the animals 15 min before dosing with the inhibitor (0.25 mL blood is drawn into a syringe containing 0.025 mL of Sigma sodium citrate). The test compound was dispersed in water and delivered to the animal (0.25 mL) via the femoral vein. The inhibitor was given at a concentration (mg/mL) which produced 80% inhibition of VO in a plasma sample at 5 min after infusion. Blood was drawn from the arterial line (blood:sodium citrate, 0.25/0.025 mL ) at regular intervals after dosing (5, 10, 15, 30, 60 and 120 min) and placed in a centrifuge tube. A plasma sample was obtained by centrifuging the blood at 10,000 rpm for 5 min. This sample is analyzed for thrombin inhibition using the chromogenic assay, described below.
The rate of increase in absorbance at 405 nm of synthetic peptides (50 μM Spectozyme® TH (H-D-HHT-Ala-Arg-pNA-2AcOH), American Diagnostica) is measured in the presence of plasma with a microplate reader (Molecular Devices) at 37° C. using an aqueous buffer (10 mM Tris, 10 mM Hepes, 150 mM NaCl, 0.1% PEG; pH 7.4). The buffer was added to the plasma samples (1:1) dilution prior to delivery to the microplate (1:5 and 1:50 for final plasma dilutions of 1:10 and 1:100 respectively) followed by the enzyme (1 nM human α thrombin). Datum was collected over a 30 min period and the initial rate of substrate hydrolysis (V0 (mOD/min)) was calculated with an analysis program (Softmax, Molecular Devices).
The time to half plasma elimination (t 1/2) was calculated from the slope of VO vs. time, using the following equation: […]. These datum are presented in Table L. In Table L, the compound # corresponds to the compound number described in U.S. Pat. No. 5,523,308.

Human Skin Chymase = biological target: T1, Human Skin Chymase; test: Chymase 10 μM Screen Method; format: biochemical; settings: 10 μM, room temperature, 5.0 nM enzyme, 3 hours; read-out: Chymase % Inhibition (10 μM)
Procedure: The enzyme reaction is started by the addition of enzyme ([E]: 1.0 nM human Lung Tryptase; Cortex Biochem CP3033). Data is collected over a period of 30 min. and the initial rate of substrate hydrolysis (Vo (mOD/min)) is calculated. Inhibition is calculated by comparing to wells containing no inhibitor (vehicle) and IC50 s are determined using a four parameter fit logistics model. […] Data is collected over a period of 30 min. and the initial rate of substrate hydrolysis (Vo (mOD/min)) is calculated. Inhibition is calculated by comparing to wells containing no inhibitor (vehicle) and IC50 s are determined using a four parameter fit logistics model. […] The enzyme reaction is started by the addition of enzyme ([E]: 5.0 nM Human Skin Chymase; Cortex Biochem CP1129), and 3 hours following that addition data is collected. After subtracting background (no enzyme addition), inhibition is calculated by comparing to wells containing no inhibitor (vehicle).

human Lung Tryptase = test: Tryptase IC50 Method; format: biochemical; settings: 37° C., 1.0 nM enzyme, 500 μM substrate
Procedure: The enzyme reaction is started by the addition of enzyme ([E]: 1.0 nM human Lung Tryptase; Cortex Biochem CP3033). Data is collected over a period of 30 min. and the initial rate of substrate hydrolysis (Vo (mOD/min)) is calculated. Inhibition is calculated by comparing to wells containing no inhibitor (vehicle) and IC50 s are determined using a four parameter fit logistics model. […] The enzyme reaction is started by the addition of enzyme ([E]: 10.0 nM Human Skin Chymase; Cortex Biochem CPl 129). Data is collected over a period of 30 min. and the initial rate of substrate hydrolysis (Vo (mOD/min)) is calculated. Inhibition is calculated by comparing to wells containing no inhibitor (vehicle) and IC50 s are determined using a four parameter fit logistics model. Chymase 10 μM Screen Method: The optical density at 405 nm due to hydrolysis of synthetic chromogenic peptide substrates ([S]: 500 μM Suc-Ala-Ala-Pro-Phe-pNA; Bachem L-1400) is measured in the presence and absence of inhibitor compounds of formula (I) with a microplate reader at room temperature. The enzyme reaction is started by the addition of enzyme ([E]: 5.0 nM Human Skin Chymase; Cortex Biochem CP1129), and 3 hours following that addition data is collected. After subtracting background (no enzyme addition), inhibition is calculated by comparing to wells containing no inhibitor (vehicle).

[1] = system: human primary melanocytes; test: Pigmentation of primary melanocyte cultures; format: cell-based; settings: for level of pigmentation, human primary melanocytes: melanocytes alone
[2] = system: MelanoDerm human epidermal equivalents; settings: MelanoDerm equivalents are known to respond; cited from earlier work
S91 cells = test: Pigmentation of choleratoxin-induced S91 cells; format: cell-based, mouse
Text: Indeed, the level of pigmentation of human primary melanocytes or choleratoxin-induced S91 cells, which is reduced by hydroquinone and benzaldehyde, was not affected by Compound I.

[3] = system: MelanoDerm human epidermal equivalents; test: Pigmentation of MelanoDerm epidermal equivalents (DOPA, H&E or F&M staining, image analysis); format: cell-based; settings: for pigmentation/melanogenesis in epidermal equivalents: MelanoDerm, three days of treatment, stained on fourth day, FIG. 1B, FIG. 2, FIG. 3
Yucatan swine skin = Yucatan swine skin pigmentation, topical, visual/chromameter/histology
Text: Each compound was applied to two sites on the pig twice daily, five days per week for eight weeks. After eight weeks of treatment, chromameter measurements were taken.
Two sites per concentration were placed on opposite sides of the swine dorsum. Chromameter measurements were taken before treatment started and every two weeks thereafter. Pictures were taken periodically and at the end of the experiment.

[4] = system: Co-cultures (no K-M contact); test: Pigmentation of keratinocyte-melanocyte co-cultures without K-M contact; format: cell-based, human; settings: Table D; three days, DOPA stained on fourth day
Text: Since PAR-2 is not expressed in melanocytes, we tested the possible requirement of keratinocyte-melanocyte interactions for the depigmenting effect of Compound I. Primary melanocyte cultures were compared to identical cultures plated under epidermal equivalents (EpiDerm, lacking melanocytes) to create a co-culture with no contact between keratinocytes and melanocytes. These were also compared to MelanoDerm equivalents, where melanocytes are present in the basal layer of the equivalent. Cultures were treated for three days with Compound I, with the PAR-2 agonist SLIGRL, and with the TR agonist TFLLRNPNDK, as set forth in Table D, and DOPA stained on the fourth day. In Table D, keratinocytes are indicated by "K", melanocytes are indicated by "M" and lack of keratinocyte-melanocyte contact is indicated as "no K-M contact". […] In MelanoDerm equivalents, compound I reduced and SLIGRL induced pigmentation, while TFLLRNPNDK had no effect.

[5] = Table D, three days, DOPA stained on fourth day

| Molecule | half-life (in vivo) [min] | inhibition at 10 µM (Human Skin Chymase) [%] | IC50 (human Lung Tryptase) [nM] | further results |
| --- | --- | --- | --- | --- |
| N=C(N)NCCC[C@H](NC(=O)[C@@H]1CCCN1C(=O)CC(c1ccccc1)c1ccccc1)C(=O)c1nc2ccccc2s1 [Compound 3] | 6 |  |  |  |
| CN[C@H](Cc1ccccc1)C(=O)N1CCC[C@H]1C(=O)N[C@@H](CCCNC(=N)N)C(=O)c1nccs1 [Compound 4] | 16 |  |  |  |
| CN[C@H](Cc1ccccc1)C(=O)N1CCC[C@H]1C(=O)N[C@@H](CCCN=C(N)N)C(=O)c1nc2ccccc2o1 [Compound 5] | 18 |  |  |  |
| CN[C@H](Cc1ccccc1)C(=O)N1CCC[C@H]1C(=O)N[C@@H](CCCNC(=N)N)C(=O)c1nc2ccc(C(=O)OC)cc2s1 [Compound 12] | 43 | 2 | 1.7 |  |
| CN[C@H](Cc1ccccc1)C(=O)N1CCC[C@H]1C(=O)N[C@@H](CCCNC(=N)N)C(=O)c1nc2ccc(F)cc2s1 [Compound 17] | 8 | 3 | 11.1 |  |
| CN[C@H](Cc1c(F)c(F)c(F)c(F)c1F)C(=O)N1CCC[C@H]1C(=O)N[C@@H](CCCNC(=N)N)C(=O)c1nc2ccccc2s1 [Compound 30] | 6 | 6 | 2.7 |  |
| N=C(N)NCCC[C@H](NC(=O)C1CCCC1)C(=O)c1nc2ccccc2s1 [Compound 31] |  | 0 | 828 |  |
| CN[C@H](Cc1ccccc1)C(=O)N1CCC[C@H]1C(=O)N[C@@H](CCCNC(=N)N)C(=O)c1nc2ccccc2[nH]1 [Compound 35] | 11 | 4 | 15.1 |  |
| CCCC[C@H](NC(=O)[C@@H]1CCCN1C(=O)[C@@H](Cc1ccccc1)NC)C(=O)c1nc2ccccc2s1 [Compound 39] |  | 37 | > 10000 |  |
| CN[C@H](Cc1ccccc1)C(=O)N1CCC[C@H]1C(=O)N[C@@H](CCCNC(=N)N)C(=O)c1nc2c(ccc3ccccc32)s1 [Compound 52] | 8 | 4 | 33.7 |  |
| CN[C@H](Cc1ccccc1)C(=O)N1CCC[C@H]1C(=O)N[C@@H](CCCOC)C(=O)c1nc2ccccc2s1 [Compound 53] |  | 5 |  |  |
| O=Cc1ccccc1 [benzaldehyde] |  |  |  | level of pigmentation, human primary melanocytes [1]: reduced; pigmentation of epidermal equivalents (known response to whitening agents) [2]: reducing pigmentation; level of pigmentation, choleratoxin-induced S91 cells (S91 cells): reduced |
| Oc1ccc(O)cc1 [hydroquinone] |  |  |  | level of pigmentation, human primary melanocytes [1]: reduced; pigmentation of epidermal equivalents (known response to whitening agents) [2]: reducing pigmentation; level of pigmentation, choleratoxin-induced S91 cells (S91 cells): reduced |
| Hirudin |  |  |  | pigmentation/melanogenesis in epidermal equivalents [3]: no effect on pigmentation |
| SFLLRN [reference compound] |  |  |  | effect on skin pigmentation (Yucatan swine skin; 10 μM, twice daily, five days per week, eight weeks): no significant effects; pigmentation/melanogenesis in epidermal equivalents [3]: trend of lightening or reducing pigmentation |
| TFLLRNPNDK [reference compound] |  |  |  | effect on pigmentation, Melanocytes (no K) [1, 5]: no effect; effect on pigmentation, Co-cultures (no K-M contact) [4]: no effect; pigmentation/melanogenesis in epidermal equivalents [3]: no effect on pigmentation; effect on pigmentation, MelanoDerm (K-M contact) [3, 5]: no effect |
| STI: soybean trypsin inhibitor, available from Sigma (protein, UniProt P01070 25-205, looked up) Trypsin inhibitor A: DFVLDNEGNPLENGGTYYILSDITAFGGIRAAPTGNERCPLTVVQSRNELDKGIGTIISSPYRIRFIAEGHPLSLKFDSFAVIMLCVGIPTEWSVVEDLPEGPAVKIGENKDAMDGWFRLERVSDDEFNNYKLVFCPQQAEDDKCGDIGISIDHDDGTRRLVVSKNKPLVVQFQKLDKESL |  |  |  | visual lightness of treated sites versus surrounding skin (Yucatan swine skin; twice a day, five days a week, at seven weeks): visually lighter than the surrounding skin; pigmentation/melanogenesis in epidermal equivalents [3]: very effective in inhibiting melanogenesis; also recorded: reduces pigmentation |
| Trypsin: Activates TR and PAR-2 (protein, UniProt P00760 24-246, looked up) Serine protease 1: IVGGYTCGANTVPYQVSLNSGYHFCGGSLINSQWVVSAAHCYKSGIQVRLGEDNINVVEGNEQFISASKSIVHPSYNSNTLNNDIMLIKLKSAASLNSRVASISLPTSCASAGTQCLISGWGNTKSSGTSYPDVLKCLKAPILSDSSCKSAYPGQITSNMFCAGYLEGGKDSCQGDSGGPVVCSGKLQGIVSWGSGCAQKNKPGVYTKVCNYVSWIKQTIASN |  |  |  | pigmentation, dose-response ([3]; increasing concentrations, SLIGRL 0, 10 and 50 μM, Compound I 0.1 μM to 1 μM, FIG. 4A): has the same effect |
